Structures are written as SMILES.

Experimental findings from ChEMBL document CHEMBL5649166, “RIP3 induces apoptosis independent of pronecrotic kinase activity” (Mol Cell, 2014) are described below.

For assay [1], the target named is T1, Serine/threonine-protein kinase Nek11 (Homo sapiens) (UniProt Q8NG66).
T1 sequence (whole entry): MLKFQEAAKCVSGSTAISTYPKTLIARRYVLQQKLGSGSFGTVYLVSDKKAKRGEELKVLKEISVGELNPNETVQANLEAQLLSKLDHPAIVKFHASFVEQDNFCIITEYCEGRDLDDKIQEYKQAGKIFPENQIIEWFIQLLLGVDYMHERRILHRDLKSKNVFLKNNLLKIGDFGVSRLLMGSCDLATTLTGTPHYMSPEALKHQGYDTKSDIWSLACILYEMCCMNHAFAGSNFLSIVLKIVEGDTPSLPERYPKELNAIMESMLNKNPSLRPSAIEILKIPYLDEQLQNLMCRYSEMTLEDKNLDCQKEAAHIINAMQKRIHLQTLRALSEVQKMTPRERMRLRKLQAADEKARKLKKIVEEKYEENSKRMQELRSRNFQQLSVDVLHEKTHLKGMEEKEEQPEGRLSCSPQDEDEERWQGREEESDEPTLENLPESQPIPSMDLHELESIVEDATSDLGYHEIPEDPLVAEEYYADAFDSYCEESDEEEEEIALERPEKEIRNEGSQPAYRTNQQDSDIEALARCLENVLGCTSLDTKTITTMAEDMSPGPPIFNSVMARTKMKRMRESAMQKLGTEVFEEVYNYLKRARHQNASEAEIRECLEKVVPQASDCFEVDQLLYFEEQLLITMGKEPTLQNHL
Put plainly: Inhibition of human NEK11 using myelin basic protein as substrate at 1 uM in presence of 32P-ATP by Hotspot assay relative to control; values are per cent of control.

Assay [2] concerns the target Serine/threonine-protein kinase Chk2 (Homo sapiens) (UniProt O96017). The assay is described as follows: Inhibition of human CHK2 using KKKVSRSGLYRSPSMPENLNRPR as substrate at 1 uM in presence of 32P-ATP by Hotspot assay relative to control; values are per cent of control.
For assay [3], the target named is Myosin light chain kinase, smooth muscle (Homo sapiens) (UniProt Q15746). The assay is described as follows: Inhibition of human MLCK/MYLK using KKLNRTLSFAEPG as substrate at 1 uM in presence of 32P-ATP by Hotspot assay relative to control; values are per cent of control.
The target in assay [4] is Serine/threonine-protein kinase PAK 3 (Homo sapiens) (UniProt O75914). The assay is described as follows: Inhibition of human PAK3 using RRRLSFAEPG as substrate at 1 uM in presence of 32P-ATP by Hotspot assay relative to control; values are per cent of control.
In assay [5] the target is T2, Tyrosine-protein kinase JAK3 (Homo sapiens) (UniProt P52333).
T2 sequence (whole entry): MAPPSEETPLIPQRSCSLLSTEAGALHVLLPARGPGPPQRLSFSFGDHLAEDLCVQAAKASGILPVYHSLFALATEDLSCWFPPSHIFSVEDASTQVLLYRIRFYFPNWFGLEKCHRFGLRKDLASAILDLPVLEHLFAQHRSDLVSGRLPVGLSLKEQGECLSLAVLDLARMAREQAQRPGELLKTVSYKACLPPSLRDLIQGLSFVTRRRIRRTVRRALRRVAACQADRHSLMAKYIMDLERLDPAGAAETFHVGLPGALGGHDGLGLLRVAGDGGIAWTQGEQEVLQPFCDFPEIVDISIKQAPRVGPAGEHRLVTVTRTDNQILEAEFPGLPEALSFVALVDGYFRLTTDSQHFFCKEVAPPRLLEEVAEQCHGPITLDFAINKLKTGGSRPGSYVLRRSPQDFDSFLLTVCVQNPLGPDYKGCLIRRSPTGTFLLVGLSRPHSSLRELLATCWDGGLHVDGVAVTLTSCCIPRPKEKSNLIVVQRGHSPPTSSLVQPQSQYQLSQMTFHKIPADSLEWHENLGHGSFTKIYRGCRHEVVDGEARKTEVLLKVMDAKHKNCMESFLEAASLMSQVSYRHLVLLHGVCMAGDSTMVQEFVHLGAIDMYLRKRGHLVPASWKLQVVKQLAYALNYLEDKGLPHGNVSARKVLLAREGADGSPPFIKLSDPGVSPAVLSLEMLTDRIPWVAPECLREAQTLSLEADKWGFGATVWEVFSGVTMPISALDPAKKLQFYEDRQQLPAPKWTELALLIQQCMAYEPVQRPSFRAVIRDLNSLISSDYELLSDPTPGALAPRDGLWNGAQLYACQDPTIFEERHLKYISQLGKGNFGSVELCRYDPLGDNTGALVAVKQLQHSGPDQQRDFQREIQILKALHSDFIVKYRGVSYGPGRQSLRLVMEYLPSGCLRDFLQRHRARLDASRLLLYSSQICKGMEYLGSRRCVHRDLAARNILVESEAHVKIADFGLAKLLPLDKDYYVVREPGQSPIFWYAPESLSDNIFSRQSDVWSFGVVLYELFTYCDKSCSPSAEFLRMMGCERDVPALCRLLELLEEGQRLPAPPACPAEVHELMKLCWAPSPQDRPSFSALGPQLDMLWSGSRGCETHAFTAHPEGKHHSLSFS
The assay is described as follows: Inhibition of human JAK3 using GGEEEEYFELVKKKK as substrate at 1 uM in presence of 32P-ATP by Hotspot assay relative to control; values are per cent of control.

In assay [6] the target is Serine/threonine-protein kinase MARK2 (Homo sapiens) (UniProt Q7KZI7). Put plainly: Inhibition of human MARK2/PAR-1Ba using KKKVSRSGLYRSPSMPENLNRPR as substrate at 1 uM in presence of 32P-ATP by Hotspot assay relative to control; values are per cent of control.
Serine/threonine-protein kinase MARK2 (Homo sapiens), sequence (Q7KZI7 whole entry): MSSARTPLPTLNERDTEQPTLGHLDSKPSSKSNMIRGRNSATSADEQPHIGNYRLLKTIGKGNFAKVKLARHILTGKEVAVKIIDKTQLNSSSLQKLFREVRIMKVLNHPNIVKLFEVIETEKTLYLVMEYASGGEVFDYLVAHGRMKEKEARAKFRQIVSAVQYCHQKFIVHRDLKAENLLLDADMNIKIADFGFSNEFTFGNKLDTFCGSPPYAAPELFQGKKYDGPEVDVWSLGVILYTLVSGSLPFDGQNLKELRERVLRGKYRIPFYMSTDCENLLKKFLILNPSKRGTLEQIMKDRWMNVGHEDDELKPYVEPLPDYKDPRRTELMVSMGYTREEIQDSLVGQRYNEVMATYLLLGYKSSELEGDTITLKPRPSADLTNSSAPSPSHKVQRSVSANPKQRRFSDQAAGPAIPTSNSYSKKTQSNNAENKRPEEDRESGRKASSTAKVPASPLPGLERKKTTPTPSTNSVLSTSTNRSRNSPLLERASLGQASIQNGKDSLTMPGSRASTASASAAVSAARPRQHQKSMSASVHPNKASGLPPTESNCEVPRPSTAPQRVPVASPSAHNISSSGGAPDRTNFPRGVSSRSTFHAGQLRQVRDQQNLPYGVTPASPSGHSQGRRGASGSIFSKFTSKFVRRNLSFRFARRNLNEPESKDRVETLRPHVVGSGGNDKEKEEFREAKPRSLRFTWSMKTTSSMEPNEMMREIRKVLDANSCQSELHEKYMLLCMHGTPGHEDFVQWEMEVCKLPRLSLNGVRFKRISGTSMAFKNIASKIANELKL

Myosin light chain kinase, smooth muscle (Homo sapiens), sequence (Q15746 whole entry): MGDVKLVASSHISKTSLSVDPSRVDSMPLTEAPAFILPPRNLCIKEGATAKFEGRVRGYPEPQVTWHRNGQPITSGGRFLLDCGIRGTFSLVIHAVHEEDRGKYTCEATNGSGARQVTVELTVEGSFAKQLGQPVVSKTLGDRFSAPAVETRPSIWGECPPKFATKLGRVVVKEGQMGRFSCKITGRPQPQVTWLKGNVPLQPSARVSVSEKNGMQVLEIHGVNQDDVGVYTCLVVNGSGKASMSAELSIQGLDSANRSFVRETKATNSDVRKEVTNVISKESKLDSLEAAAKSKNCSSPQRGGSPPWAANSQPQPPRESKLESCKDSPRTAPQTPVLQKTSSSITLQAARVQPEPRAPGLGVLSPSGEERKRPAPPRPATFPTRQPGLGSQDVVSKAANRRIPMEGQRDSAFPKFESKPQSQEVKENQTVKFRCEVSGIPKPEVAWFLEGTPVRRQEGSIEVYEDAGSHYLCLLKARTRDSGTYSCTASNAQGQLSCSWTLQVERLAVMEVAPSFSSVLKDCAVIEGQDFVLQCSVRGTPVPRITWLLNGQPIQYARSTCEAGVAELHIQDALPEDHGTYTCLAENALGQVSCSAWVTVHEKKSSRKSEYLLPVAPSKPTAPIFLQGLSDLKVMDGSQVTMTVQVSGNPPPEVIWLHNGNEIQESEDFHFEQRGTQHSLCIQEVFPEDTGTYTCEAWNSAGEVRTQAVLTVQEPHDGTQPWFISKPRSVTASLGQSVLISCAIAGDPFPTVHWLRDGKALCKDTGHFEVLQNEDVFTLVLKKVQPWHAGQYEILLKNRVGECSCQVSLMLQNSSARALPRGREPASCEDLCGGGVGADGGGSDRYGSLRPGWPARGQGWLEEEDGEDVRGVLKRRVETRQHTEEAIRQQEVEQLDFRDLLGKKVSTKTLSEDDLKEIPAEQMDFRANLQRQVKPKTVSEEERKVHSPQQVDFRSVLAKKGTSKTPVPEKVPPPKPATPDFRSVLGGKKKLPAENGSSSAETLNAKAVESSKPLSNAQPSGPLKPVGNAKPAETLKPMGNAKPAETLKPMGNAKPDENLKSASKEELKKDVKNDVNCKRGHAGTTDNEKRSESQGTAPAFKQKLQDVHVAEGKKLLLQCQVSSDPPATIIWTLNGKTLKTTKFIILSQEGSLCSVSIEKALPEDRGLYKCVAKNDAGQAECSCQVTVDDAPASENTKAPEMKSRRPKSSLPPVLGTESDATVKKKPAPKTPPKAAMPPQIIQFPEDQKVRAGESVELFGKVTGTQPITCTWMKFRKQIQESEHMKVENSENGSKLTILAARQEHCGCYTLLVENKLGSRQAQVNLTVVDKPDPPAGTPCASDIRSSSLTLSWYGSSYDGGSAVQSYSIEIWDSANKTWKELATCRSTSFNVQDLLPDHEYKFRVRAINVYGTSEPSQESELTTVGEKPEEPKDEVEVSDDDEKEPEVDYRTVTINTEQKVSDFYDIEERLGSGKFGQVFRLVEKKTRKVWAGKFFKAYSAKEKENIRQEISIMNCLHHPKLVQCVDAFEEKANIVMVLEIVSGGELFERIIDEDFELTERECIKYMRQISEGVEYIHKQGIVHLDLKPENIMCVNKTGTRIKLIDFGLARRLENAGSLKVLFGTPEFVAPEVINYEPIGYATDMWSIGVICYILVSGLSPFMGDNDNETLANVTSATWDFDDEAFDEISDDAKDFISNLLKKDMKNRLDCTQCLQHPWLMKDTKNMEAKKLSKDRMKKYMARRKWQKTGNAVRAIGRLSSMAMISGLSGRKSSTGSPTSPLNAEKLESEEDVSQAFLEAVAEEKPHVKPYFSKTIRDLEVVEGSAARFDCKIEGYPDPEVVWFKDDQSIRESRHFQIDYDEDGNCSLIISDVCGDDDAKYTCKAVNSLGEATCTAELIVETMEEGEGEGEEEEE
Serine/threonine-protein kinase Chk2 (Homo sapiens), sequence (O96017 whole entry): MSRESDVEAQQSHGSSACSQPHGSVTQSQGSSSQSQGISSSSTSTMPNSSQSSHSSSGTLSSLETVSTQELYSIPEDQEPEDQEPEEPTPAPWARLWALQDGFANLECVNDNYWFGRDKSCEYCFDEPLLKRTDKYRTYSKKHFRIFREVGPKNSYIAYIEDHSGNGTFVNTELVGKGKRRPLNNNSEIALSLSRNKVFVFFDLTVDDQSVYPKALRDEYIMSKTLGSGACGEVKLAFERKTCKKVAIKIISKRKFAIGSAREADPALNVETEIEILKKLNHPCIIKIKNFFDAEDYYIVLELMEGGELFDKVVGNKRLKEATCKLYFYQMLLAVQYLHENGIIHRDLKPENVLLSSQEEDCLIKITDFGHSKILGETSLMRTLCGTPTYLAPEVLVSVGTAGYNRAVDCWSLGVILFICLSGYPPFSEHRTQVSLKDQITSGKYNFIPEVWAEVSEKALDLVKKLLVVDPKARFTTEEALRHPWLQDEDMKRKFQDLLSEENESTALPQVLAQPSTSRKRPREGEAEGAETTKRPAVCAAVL
Serine/threonine-protein kinase PAK 3 (Homo sapiens), sequence (O75914 whole entry, looked up): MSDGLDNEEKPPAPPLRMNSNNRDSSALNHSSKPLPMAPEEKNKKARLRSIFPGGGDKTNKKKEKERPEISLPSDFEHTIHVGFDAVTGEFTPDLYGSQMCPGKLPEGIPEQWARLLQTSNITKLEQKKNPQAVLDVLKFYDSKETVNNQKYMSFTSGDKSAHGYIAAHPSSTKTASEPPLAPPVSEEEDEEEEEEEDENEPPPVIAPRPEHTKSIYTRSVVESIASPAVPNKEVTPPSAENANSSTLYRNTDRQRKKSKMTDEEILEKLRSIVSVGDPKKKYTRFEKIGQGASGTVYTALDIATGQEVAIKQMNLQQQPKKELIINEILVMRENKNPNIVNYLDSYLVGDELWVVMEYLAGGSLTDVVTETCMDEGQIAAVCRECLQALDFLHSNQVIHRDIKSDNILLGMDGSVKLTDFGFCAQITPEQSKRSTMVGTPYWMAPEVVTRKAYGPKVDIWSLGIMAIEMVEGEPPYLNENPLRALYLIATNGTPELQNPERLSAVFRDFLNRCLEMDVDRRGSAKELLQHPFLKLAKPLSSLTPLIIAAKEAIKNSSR

For orientation: residual activity means the signal under treatment as a percentage of the control signal. Consider `Cc1cc(-c2cnc(N)c3c(-c4ccc5scnc5c4)csc23)n(C)n1`, for which the residual activity in assay [1] was 97.3%; in assay [2], 97.3%; in assay [3] it was 95.3%; in assay [4], 96.6%; in assay [5], 96.6%; in assay [6] it was 95.2%.
As to `CC(C)S(=O)(=O)c1ccc2nccc(Nc3ccc4scnc4c3)c2c1`, the residual activity in assay [1] came out at 89.5%; in assay [2], 89.6%; in assay [3], 97.9%; in assay [4], 97.8%; in assay [5], 102%; in assay [6] it was 96.6%.
`CNC(=O)c1ccc2c(c1)ncn2-c1ccc(CC(=O)OC(C)(C)C)cc1`: the residual activity was determined as 102% in assay [1]; 94% in assay [2]; 97.7% in assay [3]; 105% in assay [4]; 94.3% in assay [5]; 95.6% in assay [6].
